Results taken from patent US20250223559A1, “AXIOLOID: A STEM CELL-BASED MODEL OF HUMAN AXIAL DEVELOPMENT” (KYOTO UNIVERSITY, priority 2022, published 2025).

Columns and labels:
[1] = test system: segmentation clock gene HES7; test: HES7:Luciferase reporter oscillation of the segmentation clock in Axioloids; assay type: cell-based, human; settings: RA, RAL or ROL, with or without MG
Experimental: Bioluminescence live-cell imaging of HES7-reporter (201B7Luc) iPSC-derived human Axioloids (201B7Luc) was performed and signal was quantified as previously described^55,56 Briefly, one day before imaging glass-bottom 96-well plates (Iwaki) were coated with 50 μl of 1.5% PVA (Nacalai), the PVA solution was hereby aspirated and the plates dried on top of a clean bench overnight at room temperature. Prior to imaging, Axioloids were set onto coated glass-bottom 96-well plates with 80 μl of AK02N-C medium containing […] D-Luciferin and 10% Matrigel. Small molecule agonists and antagonists of signaling pathways were added according to the experimental setup. Bioluminescence signals of Axioloids induced from the HES7-reporter cell line were recorded on IX83 (Olympus) equipped with iXon EMCCD camera (Andor) cultured in a stage top incubator (Tokai Hit). Signal was acquired with 2×2 binning and 1 min exposure. Cosmic rays were removed from the raw images by applying spike noise filter, then smoothed by median filter. Temporal fluctuation of signal baseline was corrected by background subtraction. Kymograph was generated by averaging luminescence intensity values along the lateral axis of Axioloids and resulted values were aligned in temporal order.
Periodicity of HES7 oscillation was quantified from time-series luminescence intensity data obtained from either live imaging or Kronos HT (Atto) measurements using HES7 reporter-derived Axioloids. For Kronos HT based oscillation measurements, Axioloids were transferred at 72 h (48 h after aggregation) into 24-well film-bottom plates (Eppendorf) covered in 400 μl of embedding medium (+/−MG) supplemented with D-Luciferin (100 μM) (bioWORLD). Axioloid containing culture plates were cultured at 37° C. and 5% CO2. Oscillations were measured for 48 hours and each well was measured for 10 seconds with 8 min intervals. Intensity values were processed using Matlab. Temporal trend was obtained by subtracting moving average (window size of 10 h), and the detrended signal was smoothed by Savitzky-Golay filter (window size of 3 h). Instantaneous oscillation phase was calculated by applying Hilbert transform, then peak detection was performed on cosine values of instantaneous oscillation phase. Peak-to-peak period was then quantified on each n-th oscillation.

[2] = test system: human Axioloids; test: Axioloid morphogenesis during Matrigel embedding phase (brightfield live imaging, length, segment and somite quantification); assay type: cell-based; settings: added during MG embedding phase 72 h-120 h (RA 100 nM, ROL 10 μM, RAL 1 μM); 96 h and 120 h
Experimental: Human iPS cells were seeded on iMatrix-511 silk (Nippi) coated dishes at a density of 1.3×10^4 cells/well into 6 well plates 5 days prior to Axioloid induction and used at 60% confluency. All subsequent induction steps were performed in AK02N (Reprocell) medium without component C (AK02N-C). Initially, hiPSCs were pulsed with a strong mesoderm and primitive streak fate inducing combination of bFGF (20 ng ml-1) and WNT agonist CHIR99021 (5 μM) for 24 h. CHIR99021 concentration may need to be adjusted depending on the used iPSC line, but remains usually in the range of 3-5 μM. 24 h after the initial pulse, cells were dissociated with Accutase (Thermo Fisher Scientific) and cultured for 24 h in 96-well U-bottom low attachment plates (Sumilon) at 500 cells/well in 50 μl of AK02N—C based aggregation medium supplemented with CHIR99021 (5 μM), basic FGF (20 ng ml^1), TGFβ inhibitor SB431542 (10 μM) and ROCK inhibitor Y27632 (10 μM). 24 h after aggregation, 150 μl of AK02N-C medium was added into each well and exchanged again after 24 h with 150 μl of fresh AK02N-C medium. 48 h after aggregation Axioloids were transferred one-by-one into BSA-treated 96-well flat-bottom low attachment plates (Watson) and embedded into 80 μl of AK02N-C medium containing 10% growth factor-reduced Matrigel (Corning) and cultured further at 37° C. and 5% CO2 for 24 to 48 h. Depending on the experimental setup Retinoic Acid signaling molecules, i.e. Retinoic Acid (RA) (100 nM), Retinol (ROL) (10 μM) or all trans-Retinal (RAL) (1 μM) were added to the MG containing medium throughout the embedding phase. Small molecule inhibitors of FGF (PD173074 (250 nM)), WNT (XAV939 (2 μM)), RA (BMS493 (2.5 μM)) and Notch (DAPT (25 μM)) signaling were also added during the embedding phase and their effects on Axioloids assessed accordingly. For details of the used recombinant human proteins, small molecule agonists and inhibitors, please see Supplementary Table 1. […]
Periodicity of segmentation was quantified from brightfield live-cell imaging data obtained with an inverted Ti2 microscope system (Nikon) using PlanApo λ 10× objective. […]
Quantification of length or intensity based on imaging data was performed using Fiji^57. Rostrocaudal length of formed segments was quantified from a center plane in z-stack images of Phalloidin-stained Axioloids. The longitudinal axes of Axioloids were measured on bright field images using Segmented Line tool. For quantifying fluorescent intensity of HCR or IHC staining, first, maximum intensity z projection images were created from multi-channel z-stack confocal images, then intensity of each channel was quantified along the longitudinal axis of Axioloids by Segmented Line tool, with a line width which corresponds to approximately 80% of the lateral length of Axioloids. […]

## CC1=C(/C=C/C(C)=C/C=C/C(C)=C/C=O)C(C)(C)CCC1 [RAL, all trans-Retinal]
[1]
  oscillatory activity including periodicity of HES7: largely no effect
[2]
  stability and epithelialization of forming segments: dramatic improvement of the stability and epithelialization of forming segments
